Activity data for one compound are collected here from ChEMBL document CHEMBL3044884, “Effect of 6-methoxybenzoxazolin-2-one (MBOA) on the reproduction rate of the grain aphid (Sitobion avenae F.)” (2006).

What all share (type): functional
Assay [1] deals with Sitobion avenae. Kind of assay: Insecticidal activity against 1 to 3 day old Sitobion avenae apterous virginoparous nymphs raised on artificial diet exposed to compound at 8 mM assessed as intrinsic reproduction rate of increase measured after 4 weeks (reference value: 0.00162 intrinsic reproduction rate of increase).
Assay [2] has as its system Sitobion avenae. Nature of the assay: Insecticidal activity against 1 to 3 day old Sitobion avenae apterous virginoparous nymphs raised on artificial diet exposed to compound at 0.5 mM assessed as intrinsic reproduction rate of increase measured after 4 weeks (reference value: 0.00162 intrinsic reproduction rate of increase).
The test system of assay [3] is Sitobion avenae. Kind of assay: Insecticidal activity against 1 to 3 day old Sitobion avenae apterous virginoparous nymphs raised on artificial diet exposed to compound at 0.3 mM assessed as intrinsic reproduction rate of increase measured after 4 weeks (reference value: 0.00162 intrinsic reproduction rate of increase).
Assay [4] relates to Sitobion avenae. Nature of the assay: Insecticidal activity against 1 to 3 day old Sitobion avenae apterous virginoparous nymphs raised on artificial diet exposed to compound at 0.1 mM assessed as intrinsic reproduction rate of increase measured after 4 weeks (reference value: 0.00162 intrinsic reproduction rate of increase).
In assay [5] the test system is Sitobion avenae. Nature of the assay: Insecticidal activity against 1 to 3 day old Sitobion avenae apterous virginoparous nymphs raised on artificial diet exposed to compound at 0.2 mM assessed as intrinsic reproduction rate of increase measured after 4 weeks (reference value: 0.00162 intrinsic reproduction rate of increase).
In assay [6] the test system is Sitobion avenae. Nature of the assay: Insecticidal activity against 1 to 3 day old Sitobion avenae apterous virginoparous nymphs raised on artificial diet exposed to compound at 0.05 mM assessed as intrinsic reproduction rate of increase measured after 4 weeks (reference value: 0.00162 intrinsic reproduction rate of increase).

`COc1ccc2[nH]c(=O)oc2c1` [COIXOL]: the Activity came to 0 with Sitobion avenae [1]; 0.00048 with Sitobion avenae [2]; 0.00075 in the assay with Sitobion avenae [3]; 0.00296 in the assay with Sitobion avenae [4]; 0.00139 in the assay on Sitobion avenae [5]; 0.0015 with Sitobion avenae [6].
